Reference: patent US20260226048A1, “MULTI-CYCLIC IRAK AND FLT3 INHIBITING COMPOUNDS AND USES THEREOF” (CHILDREN'S HOSPITAL MEDICAL CENTER, priority 2023, published 2026)
Numbering of substitutions follows the chain as printed.

Legend:
Conditions in all cases: 11-point 3-fold dilution
IRAK1 = biological target: T1, IRAK1 (Homo sapiens, UniProt P51617); assay: DiscoverX KINOMEscan competition binding assay, IRAK1
T1 construct: purchased Reaction Biology (RBC HotSpot)
Description: (§1) […]. […] As a result, the data report thermodynamic interaction affinities (Kd values), rather than IC50 values that are dependent on ATP concentrations. The assay uses a DNA-tagged version of the protein kinase, and an immobilized ligand bound to a solid support. Compounds that directly or indirectly prevent kinase binding to the immobilized ligand reduce the amount of kinase captured on the solid support, which is detected using an ultra-sensitive qPCR method. Affinity constants reported from the assay have been reported to be independent of the immobilized ligand used that is coupled to the solid support (See supplemental information in Fabian, M. A. et. al., (2005) Nat. Biotechnol. 23, 329-336; Wodicka, L. M. et. al., (2010) Chem. Biol. 17, 1241-1249.)
(§2) Kinase-tagged T7 phage strains were prepared in an E. coli host derived from the BL21 strain. E. coli were grown to log-phase and infected with T7 phage and incubated with shaking at 32° C. until lysis. The lysates were centrifuged and filtered to remove cell debris. The remaining kinases were produced in HEK-293 cells and subsequently tagged with DNA for qPCR detection. Streptavidin-coated magnetic beads were treated with biotinylated small molecule ligands for 30 minutes at room temperature to generate affinity resins for kinase assays. The liganded beads were blocked with excess biotin and washed with blocking buffer (SeaBlock (Pierce), 1% BSA, 0.05% Tween 20, 1 mM DTT) to remove unbound ligand and to reduce non-specific binding. […] Test compounds were prepared as 111× stocks in 100% DMSO. Kds were determined using an 11-point 3-fold compound dilution series with three DMSO control points. All compounds for Kd measurements are distributed by acoustic transfer (non-contact dispensing) in 100% DMSO. The compounds were then diluted directly into the assays such that the final concentration of DMSO was 0.9%. All reactions were performed in polypropylene 384-well plates. Each was a final volume of 0.02 mL. […] The kinase concentration in the eluates was measured by qPCR.
(§3) Binding constants (Kds) were calculated with a standard dose-response curve using the Hill equation. The Hill Slope was set to −1. Curves were fitted using a non-linear least square fit with the Levenberg-Marquardt algorithm.

FLT3 D835V = biological target: T2, FLT3 D835V (Homo sapiens, UniProt P36888, D835V); assay: DiscoverX KINOMEscan competition binding assay, FLT3 D835V
T2 construct: purchased DiscoverX (KINOMEscan); host or cells: E. coli BL21-derived host (T7 phage) or HEK-293
T2 sequence (P36888 27-993 D835V): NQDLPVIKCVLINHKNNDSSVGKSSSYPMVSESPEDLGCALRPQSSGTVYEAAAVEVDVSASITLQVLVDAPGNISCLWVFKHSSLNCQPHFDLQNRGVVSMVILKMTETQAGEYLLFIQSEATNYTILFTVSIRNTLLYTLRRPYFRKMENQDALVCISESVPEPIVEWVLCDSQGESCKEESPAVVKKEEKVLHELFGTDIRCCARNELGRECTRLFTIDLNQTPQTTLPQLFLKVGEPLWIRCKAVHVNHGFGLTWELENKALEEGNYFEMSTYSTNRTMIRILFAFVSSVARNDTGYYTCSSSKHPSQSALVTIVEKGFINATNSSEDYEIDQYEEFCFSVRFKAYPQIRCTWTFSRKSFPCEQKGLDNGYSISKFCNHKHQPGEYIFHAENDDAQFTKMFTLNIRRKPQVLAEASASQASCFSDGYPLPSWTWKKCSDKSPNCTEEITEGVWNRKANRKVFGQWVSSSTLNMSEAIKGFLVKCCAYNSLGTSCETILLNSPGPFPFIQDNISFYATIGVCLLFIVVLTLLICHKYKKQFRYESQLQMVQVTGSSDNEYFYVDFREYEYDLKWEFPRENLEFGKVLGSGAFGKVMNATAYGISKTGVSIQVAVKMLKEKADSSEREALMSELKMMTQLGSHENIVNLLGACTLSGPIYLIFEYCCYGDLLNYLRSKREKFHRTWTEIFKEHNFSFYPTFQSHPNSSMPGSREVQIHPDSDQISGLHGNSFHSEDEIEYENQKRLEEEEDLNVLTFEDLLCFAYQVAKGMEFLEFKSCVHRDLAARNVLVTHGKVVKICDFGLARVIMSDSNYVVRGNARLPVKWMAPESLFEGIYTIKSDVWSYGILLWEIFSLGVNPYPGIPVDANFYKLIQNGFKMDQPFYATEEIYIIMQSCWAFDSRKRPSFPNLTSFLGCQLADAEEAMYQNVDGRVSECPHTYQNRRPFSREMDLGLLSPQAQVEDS
Description: as §1, §2, §3

FLT3 D835Y = biological target: T3, FLT3 D835Y (Homo sapiens, UniProt P36888, D835Y); assay: DiscoverX KINOMEscan competition binding assay, FLT3 D835Y
T3 construct: purchased DiscoverX (KINOMEscan); host or cells: E. coli BL21-derived host (T7 phage) or HEK-293
T3 sequence (P36888 27-993 D835Y): T2 sequence (P36888 27-993 D835V) with V809Y
Description: as §1, §2, §3

T1 sequence (P51617 whole entry): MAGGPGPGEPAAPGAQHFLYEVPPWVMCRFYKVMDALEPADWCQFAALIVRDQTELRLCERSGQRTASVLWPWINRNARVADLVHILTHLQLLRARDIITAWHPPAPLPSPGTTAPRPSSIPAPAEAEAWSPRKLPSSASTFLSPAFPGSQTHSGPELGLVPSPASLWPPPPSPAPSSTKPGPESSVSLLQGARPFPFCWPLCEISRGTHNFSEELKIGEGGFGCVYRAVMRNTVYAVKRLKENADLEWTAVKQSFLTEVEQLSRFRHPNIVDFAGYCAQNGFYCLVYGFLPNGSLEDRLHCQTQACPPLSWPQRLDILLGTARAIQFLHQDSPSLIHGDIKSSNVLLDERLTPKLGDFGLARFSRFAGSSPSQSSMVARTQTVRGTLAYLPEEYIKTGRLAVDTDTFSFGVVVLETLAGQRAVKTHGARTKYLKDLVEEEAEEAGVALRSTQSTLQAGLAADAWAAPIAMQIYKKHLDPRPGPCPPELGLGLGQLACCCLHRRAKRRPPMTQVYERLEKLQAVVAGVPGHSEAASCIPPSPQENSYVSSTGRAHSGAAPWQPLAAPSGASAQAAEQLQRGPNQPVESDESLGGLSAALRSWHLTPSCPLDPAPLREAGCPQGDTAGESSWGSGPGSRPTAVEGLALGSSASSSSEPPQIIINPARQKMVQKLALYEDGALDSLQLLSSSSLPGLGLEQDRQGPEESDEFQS

| SMILES | Kd (IRAK1) [nM] | Kd (FLT3 D835V) [nM] | Kd (FLT3 D835Y) [nM] |
| --- | --- | --- | --- |
| COc1cc2ncc(-c3nc(N[C@H]4CNCC[C@@H]4F)ncc3F)n2nc1C1CC1 [Compound 1a, 4-(6-cyclopropyl-7-methoxyimidazo[1,2-b]pyridazin-3-yl)-5-fluoro-N-((3S,4S)-4-fluoropiperidin-3-yl)pyrimidin-2-amine] | < 0.17 | < 0.17 | 0.23 |
| FC(F)COc1cc2ncc(-c3ccnc(N[C@H]4CNCC[C@@H]4F)n3)n2nc1C1CC1 [Compound 4a, 4-(6-cyclopropyl-7-(2,2-difluoroethoxy)imidazo[1,2-b]pyridazin-3-yl)-N-((3 S,4S)-4-fluoropiperidin-3-yl)pyrimidin-2-amine] | 7.8 | < 0.17 | 0.42 |
| COc1cc2ncc(-c3nc(N[C@H]4CNCC[C@@H]4F)ncc3F)n2nc1C(C)(C)O [Compound 45a, 2-(3-(5-fluoro-2-(((3S,4S)-4-fluoropiperidin-3-yl)amino)pyrimidin-4-yl)-7-methoxyimidazo[1,2-b]pyridazin-6-yl)propan-2-ol] | 1.6 | 0.87 | 0.2 |
| CC(C)(O)c1ccc2ncc(-c3nc(N[C@H]4CNCC[C@@H]4F)ncc3F)n2c1 [Compound 46a, 2-(3-(5-fluoro-2-(((3S,4S)-4-fluoropiperidin-3-yl)amino)pyrimidin-4-yl)imidazo[1,2-a]pyridin-6-yl)propan-2-ol] | 0.7 | 0.53 | 0.26 |
| COc1cc2ncc(-c3nc(N[C@H]4CNCC[C@@H]4F)ncc3F)n2nc1C1COC1 [Compound 92a, 5-fluoro-N-((3S,4S)-4-fluoropiperidin-3-yl)-4-(7-methoxy-6-(oxetan-3-yl)imidazo[1,2-b]pyridazin-3-yl)pyrimidin-2-amine] | 0.49 | < 0.17 | < 0.17 |
| CC(C)(O)c1cn2c(-c3nc(N[C@H]4CNCC[C@@H]4F)ncc3F)cnc2cn1 [Compound 100a, 2-(3-(5-fluoro-2-(((3S,4S)-4-fluoropiperidin-3-yl)amino)pyrimidin-4-yl)imidazo[1,2-a]pyrazin-6-yl)propan-2-ol] | 4.5 | 2.1 | 2.4 |
| COc1cc2ncc(-c3nc(N[C@H]4CNCC[C@@H]4F)ncc3F)n2nc1N1CCCS1(=O)=O [Compound 112a, 2-(3-(5-fluoro-2-(((3S,4S)-4-fluoropiperidin-3-yl)amino)pyrimidin-4-yl)-7-methoxyimidazo[1,2-b]pyridazin-6-yl)isothiazolidine 1,1-dioxide] | 1.1 | < 0.17 | < 0.17 |
